Results reported in patent publication US8901035B2, “Herbicidal compositions comprising 4-amino-3-chloro-5-fluoro-6-(4-chloro-2-fluoro-3-methoxyphenyl) pyridine-2-carboxylic acid or a derivative thereof and cellulose biosynthesis inhibitor herbicides” (Dow AgroSciences LLC, priority 2012, dated 2014).

Key:
Type in all cases: in vivo
[1] = test system: Setaria faberi Herrm. (SETFA); experiment: Pre-emergence soil-applied herbicidal mixtures for weed control (greenhouse); conditions: Indaziflam 95 g ai/ha alone
Description: (§1) Seeds or nutlets of the desired test plant species were planted in a soil matrix prepared by mixing a loam soil (e.g., 32 percent silt, 23 percent clay, and 45 percent sand, with a pH of about 6.5 and an organic matter content of about 1.9 percent) and calcareous grit in an 80 to 20 ratio. The soil matrix was contained in plastic pots with a volume of 1 quart and a surface area of 83.6 square centimeters (cm^2).
(§2) Treatments consisted of the benzyl ester of 4-amino-3-chloro-5-fluoro-6-(4-chloro-2-fluoro-3-methoxy-phenyl)pyridine-2-carboxylic acid (compound A) formulated as an SC (suspension concentrate) and various herbicidal components alone and in combination. Forms of compound A were applied on an acid equivalent basis.
(§3) Other herbicidal components were applied on an acid equivalent or active ingredient basis and included the cellulose biosynthesis inhibiting herbicides, isoxaben formulated as Gallery® 75DF and indaziflam formulated as Specticle® 20WSP.
(§4) Treatment requirements were calculated based upon the rates being tested, the concentration of active ingredient or acid equivalent in the formulation, and a 12 mL application volume at a rate of 187 L/ha.
(§5) For treatments comprised of formulated compounds, measured amounts of compounds were placed individually in 25 mL glass vials and diluted in a volume of 1.25% (v/v) Agri-Dex® crop oil concentrate (COC) to obtain 12× stock solutions. […] Application solutions were prepared by adding an appropriate amount of each stock solution (e.g., 1 mL) and diluted to the appropriate final concentrations with the addition of 10 mL of an aqueous mixture of 1.25% (v/v) COC so that the final spray solutions contained 1.25% (v/v) COC.
(§6) All stock solutions and applications solutions were visually inspected for compound compatibility prior to application. Spray solutions were applied to the soil with an overhead Mandel track sprayer equipped with a 8002E nozzles calibrated to deliver 187 L/ha over an application area of 0.503 m^2 at a spray height of 18 inches (46 cm) above average pot height. Control pots were sprayed in the same manner with the solvent blank.
(§7) The treated and control pots were placed in a greenhouse and top watered as needed. When required to ensure good germination and healthy plants, a fungicide treatment and/or other chemical or physical treatment was applied. The pots were maintained in a greenhouse with an approximate 14 hr. photoperiod which was maintained at about 29° C. during the day and 26° C. during the night. Nutrients (Peters® Excel 15-5-15 5-Ca 2-Mg) were applied in the irrigation solution as needed and water was added on a regular basis. Supplemental lighting was provided with overhead metal halide 1000-Watt lamps as necessary. After approximately 4 weeks, the condition of the test plants as compared with that of the untreated plants was determined visually and scored on a scale of 0 to 100 percent where 0 corresponds to no injury or growth inhibition and 100 corresponds to complete kill.
(§8) Colby's equation was used to determine the herbicidal effects expected from the mixtures (Colby, S. R. 1967. Calculation of the synergistic and antagonistic response of herbicide combinations. Weeds 15:20-22).
(§9) The following equation was used to calculate the expected activity of mixtures containing two active ingredients, A and B: Expected=A+B−(A×B/100)
(§10) A=observed efficacy of active ingredient A at the same concentration as used in the mixture.
(§11) B=observed efficacy of active ingredient B at the same concentration as used in the mixture.

[2] = test system: Ipomoea hederacea (L.) Jacq. (IPOHE); experiment: as above
Description: as §1, §2, §3, §4, §5, §6, §7, §8, §9, §10, §11

[3] = test system: Xanthium strumarium L. (XANST); experiment: as above
Description: as §1, §2, §3, §4, §5, §6, §7, §8, §9, §10, §11

[4] = test system: Brachiaria platyphylla (Griseb.) Nash or Urochloa platyphylla (Nash) R.D. Webster (BRAPP); experiment: Postemergence foliar-applied herbicidal mixtures, weed control in direct seeded rice (greenhouse)
Description: (§12) Seeds or nutlets of the desired test plant species were planted in a soil matrix prepared by mixing a loam or sandy loam soil (e.g., 28.6 percent silt, 18.8 percent clay, and 52.6 percent sand, with a pH of about 5.8 and an organic matter content of about 1.8 percent) and calcareous grit in an 80 to 20 ratio. The soil matrix was contained in plastic pots with a volume of 1 quart and a surface area of 83.6 square centimeters (cm^2). When required to ensure good germination and healthy plants, a fungicide treatment and/or other chemical or physical treatment was applied. The plants were grown for 8-22 days in a greenhouse with an approximate 14 h photoperiod which was maintained at about 29° C. during the day and 26° C. during the night. Nutrients (Peters Excel® 15-5-15 5-Ca 2-Mg and iron chelate) were applied in the irrigation solution as needed and water was added on a regular basis. Supplemental lighting was provided with overhead metal halide 1000-Watt lamps as necessary. The plants were employed for testing when they reached the first through fourth true leaf stage.
(§13) Treatments consisted of the acid or esters of 4-amino-3-chloro-5-fluoro-6-(4-chloro-2-fluoro-3-methoxy-phenyl) pyridine-2-carboxylic acid (Compound A), each formulated as an SC (suspension concentrate), and various herbicidal components alone and in combination. Forms of compound A were applied on an acid equivalent basis.
(§14) Other herbicidal components were applied on an active ingredient basis and included cellulose biosynthesis-inhibiting (CBI) herbicides isoxaben formulated as Gallery® 75DF and indaziflam formulated as Specticle® 20WSP.
as §4
as §5, with “oil concentrated” for “oil concentrate (COC)”, “(v/v) crop oil concentrate” for “(v/v) COC”, “contained 1.25+/−0.05%” for “contained 1.25%”, “(v/v) crop oil concentrate.” for “(v/v) COC.”
(§15) All stock solutions and applications solutions were visually inspected for compound compatibility prior to application. Spray solutions were applied to the plant material with an overhead Mandel track sprayer equipped with a 8002E nozzles calibrated to deliver 187 L/ha over an application area of 0.503 m^2 at a spray height of 18 to 20 inches (46 to 50 cm) above average plant canopy height. Control plants were sprayed in the same manner with the solvent blank.
(§16) The treated plants and control plants were placed in a greenhouse as described above and watered by sub-irrigation to prevent wash-off of the test compounds. After approximately 3 weeks, the condition of the test plants as compared with that of the untreated plants was determined visually and scored on a scale of 0 to 100 percent where 0 corresponds to no injury or growth inhibition and 100 corresponds to complete kill.
as §8, §9, §10, §11

[5] = test system: Leptochloa chinensis (L.) Nees (LEFCH); experiment: as above
Description: as §12, §13, §14, §4
as §5, with “oil concentrated” for “oil concentrate (COC)”, “(v/v) crop oil concentrate” for “(v/v) COC”, “contained 1.25+/−0.05%” for “contained 1.25%”, “(v/v) crop oil concentrate.” for “(v/v) COC.”
as §15, §16, §8, §9, §10, §11

[6] = test system: Digitaria sanguinalis (L.) Scop. (DIGSA); experiment: as above
Description: as §12, §13, §14, §4
as §5, with “oil concentrated” for “oil concentrate (COC)”, “(v/v) crop oil concentrate” for “(v/v) COC”, “contained 1.25+/−0.05%” for “contained 1.25%”, “(v/v) crop oil concentrate.” for “(v/v) COC.”
as §15, §16, §8, §9, §10, §11

[7] = Compound A Acid 4.38 g ae/ha alone
[8] = Compound A Acid 5.3 g ae/ha alone
[9] = Compound A Acid 8.75 g ae/ha alone
[10] = Compound A Acid 10.6 g ae/ha alone

Row | SMILES | Visual Weed Control (%) - 27 DAA SETFA Obs [1] [%] | Visual Weed Control (%) - 28 DAA IPOHE Obs ([2]; Indaziflam 17.5 g ai/ha alone) [%] | Visual Weed Control (%) - 28 DAA IPOHE Obs ([2]; Indaziflam 70 g ai/ha alone) [%] | Visual Weed Control (%) - 28 DAA XANST Obs ([3]; Indaziflam 17.5 g ai/ha alone) [%] | Visual Weed Control (%) - 28 DAA XANST Obs ([3]; Indaziflam 70 g ai/ha alone) [%] | Visual Weed Control (%) - 21 DAA Obs ([4]; Indaziflam 21 g ai/ha alone) [%] | Visual Weed Control (%) - 21 DAA Obs ([4]; Indaziflam 42 g ai/ha alone) [%] | Visual Weed Control (%) - 21 DAA Obs ([5]; Indaziflam 42 g ai/ha alone) [%] | Visual Weed Control (%) - 21 DAA Obs ([6]; Indaziflam 21 g ai/ha alone) [%] | Visual Weed Control (%) - 21 DAA Obs ([6]; Indaziflam 42 g ai/ha alone) [%] | Visual Weed Control (%) - 20 DAA Obs [4, 7] [%] | Visual Weed Control (%) - 21 DAA Obs [4, 8] [%] | Visual Weed Control (%) - 20 DAA Obs [4, 9] [%] | Visual Weed Control (%) - 21 DAA Obs [4, 10] [%] | Visual Weed Control (%) - 20 DAA Obs [5, 7] [%] | Visual Weed Control (%) - 21 DAA Obs [6, 8] [%] | Visual Weed Control (%) - 20 DAA Obs [6, 9] [%] | Visual Weed Control (%) - 21 DAA Obs [6, 10] [%] | Visual Weed Control (%) - 20 DAA Obs ([6]; Compound A Acid 17.5 g ae/ha alone) [%] | Visual Weed Control (%) - 21 DAA Obs ([6]; Compound A Acid 21.2 g ae/ha alone) [%]
1 | Cc1ccc2c(c1)[C@H](Nc1nc(N)nc(C(C)F)n1)[C@@H](C)C2 (stereo partly drawn) [Indaziflam, N-[(1R,2S)-2,3-dihydro-2,6-dimethyl-1H-inden-1-yl]-6-(1-fluoroethyl)-1,3,5-triazine-2,4-diamine, reference compound] | 70 | 40 | 40 | 25 | 45 | 0 | 15 | 70 | 50 | 45 | – | – | – | – | – | – | – | – | – | –
2 | COc1c(Cl)ccc(-c2nc(C(=O)O)c(Cl)c(N)c2F)c1F [Compound A Acid, 4-amino-3-chloro-6-(4-chloro-2-fluoro-3-methoxyphenyl)-5-fluoropyridine-2-carboxylic acid] | – | – | – | – | – | – | – | – | – | – | 75 | 60 | 80 | 85 | 15 | 20 | 45 | 30 | 50 | 35
